Measurements: ChEMBL document CHEMBL1157550, “Incorporation of fluorinated phenylalanine generates highly specific inhibitor of proteasome's chymotrypsin-like sites” (J Med Chem, 2010)
The source made the active and inactive calls. The calls are words filed in the database; no cut-off is given here.

What was measured:
[1] = target: T1, Proteasome component C5 (Homo sapiens) (UniProt P20618); test: Inhibition of 26S proteasome beta 1 in human HEK293 cell lysate assessed as residual activity at 13.5 uM after 1 hr; format: cell-free
T1 sequence (whole entry): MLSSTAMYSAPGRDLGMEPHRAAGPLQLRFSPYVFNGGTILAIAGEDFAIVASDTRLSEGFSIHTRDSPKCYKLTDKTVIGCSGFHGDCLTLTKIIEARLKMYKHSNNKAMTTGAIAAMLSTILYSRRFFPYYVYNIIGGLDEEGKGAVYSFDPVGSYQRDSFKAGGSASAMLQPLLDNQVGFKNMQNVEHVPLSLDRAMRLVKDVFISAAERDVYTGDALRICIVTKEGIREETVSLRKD

[2] = target: T1, Proteasome component C5 (Homo sapiens); test: (§1) Inhibition of 26S proteasome beta 1 in human HEK293 cell lysate assessed as residual activity at […] after 1 hr; format: cell-free
[3] = target: T1, Proteasome component C5 (Homo sapiens); test: Inhibition of 26S proteasome beta 1 in human HEK293 cell lysate assessed as residual activity at 1.5 uM after 1 hr; format: cell-free
[4] = target: T1, Proteasome component C5 (Homo sapiens); test: Inhibition of 26S proteasome beta 1 in human HEK293 cell lysate assessed as residual activity at 0.5 uM after 1 hr; format: cell-free
[5] = target: T1, Proteasome component C5 (Homo sapiens); test: Inhibition of 26S proteasome beta 1 in human HEK293 cell lysate assessed as residual activity at 0.167 uM after 1 hr; format: cell-free
[6] = target: T1, Proteasome component C5 (Homo sapiens); test: as §1; format: cell-free; remark: listed apart in the source
[7] = target: T1, Proteasome component C5 (Homo sapiens); test: Inhibition of 26S proteasome beta 1 in human HEK293 cell lysate assessed as residual activity at 0.019 uM after 1 hr; format: cell-free
[8] = target: T1, Proteasome component C5 (Homo sapiens); test: Inhibition of 26S proteasome beta 1 in human HEK293 cell lysate assessed as residual activity at 0.002 uM after 1 hr; format: cell-free
[9] = target: T1, Proteasome component C5 (Homo sapiens); test: Inhibition of 26S proteasome beta 1 in human HEK293 cell lysate assessed as residual activity at 0.001 uM after 1 hr; format: cell-free
[10] = target: Proteasome Macropain subunit (Homo sapiens) (UniProt P49721); test: (§2) Inhibition of 26S proteasome beta 2 in human HEK293 cell lysate assessed as residual activity at […] after 1 hr; format: cell-free
[11] = target: Proteasome Macropain subunit (Homo sapiens) (UniProt P49721); test: Inhibition of 26S proteasome beta 2 in human HEK293 cell lysate assessed as residual activity at 1.5 uM after 1 hr; format: cell-free
[12] = target: Proteasome Macropain subunit (Homo sapiens) (UniProt P49721); test: Inhibition of 26S proteasome beta 2 in human HEK293 cell lysate assessed as residual activity at 0.5 uM after 1 hr; format: cell-free
[13] = target: Proteasome Macropain subunit (Homo sapiens) (UniProt P49721); test: Inhibition of 26S proteasome beta 2 in human HEK293 cell lysate assessed as residual activity at 0.167 uM after 1 hr; format: cell-free
[14] = target: Proteasome Macropain subunit (Homo sapiens) (UniProt P49721); test: as §2; format: cell-free; remark: listed apart in the source
[15] = target: Proteasome Macropain subunit (Homo sapiens) (UniProt P49721); test: Inhibition of 26S proteasome beta 2 in human HEK293 cell lysate assessed as residual activity at 0.019 uM after 1 hr; format: cell-free
[16] = target: Proteasome Macropain subunit (Homo sapiens) (UniProt P49721); test: Inhibition of 26S proteasome beta 2 in human HEK293 cell lysate assessed as residual activity at 0.006 uM after 1 hr; format: cell-free
[17] = target: Proteasome Macropain subunit (Homo sapiens) (UniProt P49721); test: Inhibition of 26S proteasome beta 2 in human HEK293 cell lysate assessed as residual activity at 0.002 uM after 1 hr; format: cell-free
[18] = target: Proteasome Macropain subunit (Homo sapiens) (UniProt P49721); test: Inhibition of 26S proteasome beta 2 in human HEK293 cell lysate assessed as residual activity at 0.001 uM after 1 hr; format: cell-free
[19] = target: T1, Proteasome component C5 (Homo sapiens); test: Inhibition of 26S proteasome beta 1 in human HEK293 cell lysate assessed as residual activity at 0.006 uM after 1 hr; format: cell-free
[20] = target: Proteasome Macropain subunit (Homo sapiens) (UniProt P49721); test: Inhibition of 26S proteasome beta 2 in human HEK293 cell lysate assessed as residual activity at 13.5 uM after 1 hr; format: cell-free
[21] = target: T1, Proteasome component C5 (Homo sapiens); test: Displacement of fluorescent labeled MV151 from 26S proteasome beta 1 in human HEK293 cell lysate assessed as disappearance of band at 0.1 to 1 uM after 1 hr by SDS-PAGE; format: cell-free
[22] = target: T2, Proteasome Macropain subunit MB1 (Homo sapiens) (UniProt P28074); test: Displacement of fluorescent labeled MV151 from 26S proteasome beta 5 in human HEK293 cell lysate assessed as disappearance of band at 0.1 to 1 uM after 1 hr by SDS-PAGE; format: cell-free
T2 sequence (whole entry): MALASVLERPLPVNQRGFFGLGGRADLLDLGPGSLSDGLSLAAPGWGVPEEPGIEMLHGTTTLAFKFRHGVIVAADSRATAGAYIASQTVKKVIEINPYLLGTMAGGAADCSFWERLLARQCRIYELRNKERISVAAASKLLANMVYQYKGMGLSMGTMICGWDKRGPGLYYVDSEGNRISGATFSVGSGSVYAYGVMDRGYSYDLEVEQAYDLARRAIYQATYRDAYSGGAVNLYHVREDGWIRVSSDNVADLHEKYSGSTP

[23] = target: Proteasome subunit beta type-5 (Homo sapiens) (UniProt P28074); test: Inhibition of 26S proteasome beta 5 in human HEK293 cell lysate assessed as residual activity at […] after 1 hr
[24] = target: Proteasome subunit beta type-5 (Homo sapiens) (UniProt P28074); test: as above; remark: listed apart in the source
[25] = target: Proteasome subunit beta type-5 (Homo sapiens) (UniProt P28074); test: Inhibition of 26S proteasome beta 5 in human HEK293 cell lysate assessed as residual activity at 1.5 uM after 1 hr
[26] = target: Proteasome subunit beta type-5 (Homo sapiens) (UniProt P28074); test: Inhibition of 26S proteasome beta 5 in human HEK293 cell lysate assessed as residual activity at 0.5 uM after 1 hr
[27] = target: Proteasome subunit beta type-5 (Homo sapiens) (UniProt P28074); test: Inhibition of 26S proteasome beta 5 in human HEK293 cell lysate assessed as residual activity at 13.5 uM after 1 hr
[28] = target: Proteasome subunit beta type-5 (Homo sapiens) (UniProt P28074); test: Inhibition of 26S proteasome beta 5 in human HEK293 cell lysate assessed as residual activity at 0.167 uM after 1 hr
[29] = target: Proteasome subunit beta type-5 (Homo sapiens) (UniProt P28074); test: Inhibition of 26S proteasome beta 5 in human HEK293 cell lysate assessed as residual activity at 0.019 uM after 1 hr
[30] = target: Proteasome subunit beta type-5 (Homo sapiens) (UniProt P28074); test: Inhibition of 26S proteasome beta 5 in human HEK293 cell lysate assessed as residual activity at 0.006 uM after 1 hr
[31] = target: Proteasome subunit beta type-5 (Homo sapiens) (UniProt P28074); test: Inhibition of 26S proteasome beta 5 in human HEK293 cell lysate assessed as residual activity at 0.002 uM after 1 hr
[32] = target: Proteasome subunit beta type-5 (Homo sapiens) (UniProt P28074); test: Inhibition of 26S proteasome beta 5 in human HEK293 cell lysate assessed as residual activity at 0.001 uM after 1 hr

Proteasome Macropain subunit (Homo sapiens), sequence (P49721 whole entry): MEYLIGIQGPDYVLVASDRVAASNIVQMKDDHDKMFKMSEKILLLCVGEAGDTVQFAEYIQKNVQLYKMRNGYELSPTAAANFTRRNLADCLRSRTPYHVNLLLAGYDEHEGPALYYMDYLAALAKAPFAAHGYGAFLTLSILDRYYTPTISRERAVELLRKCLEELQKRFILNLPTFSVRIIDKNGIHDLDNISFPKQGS

With `CC(C)C[C@H](NC(=O)[C@H](Cc1cc(C(F)(F)F)cc(C(F)(F)F)c1)NC(=O)c1cnccn1)B1OC2C[C@@H]3C[C@@H](C3(C)C)[C@]2(C)O1` (some centres not stated) the Activity [1] was 0.5%, the Activity [2] was 1.1% and the Activity [3] was 3.1%. For the same compound, the Activity [4] was 17%, the Activity [5] was 45.2% and the Activity [6] was 79.1%. The Activity [7] was 92.3%, the Activity [8] was 102% and the Activity [9] was 99.9%. For the same compound, the Activity [10] was 63.7%, the Activity [11] was 78.5% and the Activity [12] was 103%. For the same compound, the Activity [13] was 94.3%, the Activity [14] was 122% and the Activity [15] was 118%. It also gave an Activity [16] of 109%, an Activity [17] of 93.1% and an Activity [18] of 100%. For the same compound, the Activity [19] was 93.2%, the Activity [20] was 38.5% and the Activity [21] was “Active”. The Activity [22] was “Active”, the Activity [23] was 2.7% and the Activity [24] was 14.3%. For the same compound, the Activity [25] was 5.4%, the Activity [26] was 7.7% and the Activity [27] was 0.7%. For the same compound, the Activity [28] was 8.8%, the Activity [29] was 21.2% and the Activity [30] was 23.3%. The Activity [31] was 41.3% and the Activity [32] was 35.5%.
